From the NIST ThermoML archive (doi:10.1016/j.fluid.2005.02.015)
± gives the expanded uncertainty stated by the source.

Assays:
[1] = refractive index (Na D-line) (dimensionless); conditions: 293.15 K; 101.33 kPa; Liquid; Standard Abbe refractometry
[2] = Liquid; for mass density: 298.15 K, 101.33 kPa
[3] = xn = mol fraction of the nth substance listed; conditions: 298.15 K, 101.33 kPa, Liquid

**Q.** Which results are given for `CCOC(=O)[C@H](C)O` [(S)-(-)-ethyl lactate]?
**A.** refractive index [1]: 1.4129 ± 0.0007; mass density [2]: 1032.94 ± 0.24 kg/m3; vapor or sublimation pressure ([2]; 427.65 K): 101.33 ± 0.34 kPa

**Q.** Which mass density ([3]; x2 = 0) does the source give for `CCOC(=O)[C@H](C)O` [(S)-(-)-ethyl lactate] + CCO here?
**A.** 1032.94 ± 0.24 kg/m3

**Q.** And the mass density ([3]; x2 = 0.1242)?
**A.** 1018.42 ± 0.21 kg/m3

**Q.** And the mass density ([3]; x2 = 0.2256)?
**A.** 1004.73 ± 0.19 kg/m3

**Q.** What about the mass density ([3]; x2 = 0.312) of the same molecule?
**A.** 991.37 ± 0.2 kg/m3

**Q.** And the mass density ([3]; x2 = 0.3921)?
**A.** 977.447 ± 0.23 kg/m3

**Q.** What about the mass density ([3]; x2 = 0.5236) of the same molecule?
**A.** 950.894 ± 0.29 kg/m3

**Q.** What about the mass density ([3]; x2 = 0.5735) of the same molecule?
**A.** 939.295 ± 0.31 kg/m3

**Q.** And the mass density ([3]; x2 = 0.6735)?
**A.** 913.364 ± 0.35 kg/m3

**Q.** And the mass density ([3]; x2 = 0.7574)?
**A.** 887.971 ± 0.4 kg/m3

**Q.** And the mass density ([3]; x2 = 0.7941)?
**A.** 875.598 ± 0.42 kg/m3

**Q.** And the mass density ([3]; x2 = 0.8267)?
**A.** 863.971 ± 0.44 kg/m3

**Q.** And the mass density ([3]; x2 = 0.8559)?
**A.** 852.975 ± 0.47 kg/m3

**Q.** What about the mass density ([3]; x2 = 0.9578) of the same molecule?
**A.** 809.773 ± 0.55 kg/m3

**Q.** With `CCCCO` [butan-1-ol] as the molecule, how does the refractive index [1] read?
**A.** 1.3993 ± 0.0007

**Q.** And the mass density [2]?
**A.** 809.572 ± 0.55 kg/m3

**Q.** And the “vapor or sublimation pressure” value ([2]; 390.88 K)?
**A.** 101.33 ± 0.34 kPa

**Q.** With `CCCCO` [butan-1-ol] + CCCCOC(=O)[C@H](C)O as the molecule, how does the mass density ([3]; x1 = 1) read?
**A.** 809.572 ± 0.55 kg/m3

**Q.** Which results are given for `CCCCOC(=O)[C@H](C)O` [butyl L-lactate]?
**A.** refractive index [1]: 1.4218 ± 0.0007; mass density [2]: 982.178 ± 0.21 kg/m3; vapor or sublimation pressure ([2]; 390 K): 10.62 ± 0.35 kPa; vapor or sublimation pressure ([2]; 395 K): 13.01 ± 0.36 kPa; vapor or sublimation pressure ([2]; 400 K): 15.8 ± 0.37 kPa; vapor or sublimation pressure ([2]; 405 K): 19.04 ± 0.38 kPa; vapor or sublimation pressure ([2]; 410 K): 22.79 ± 0.39 kPa; vapor or sublimation pressure ([2]; 415 K): 27.09 ± 0.41 kPa; vapor or sublimation pressure ([2]; 420 K): 32 ± 0.42 kPa; vapor or sublimation pressure ([2]; 425 K): 37.58 ± 0.44 kPa; vapor or sublimation pressure ([2]; 430 K): 43.87 ± 0.46 kPa; vapor or sublimation pressure ([2]; 435 K): 50.94 ± 0.48 kPa; vapor or sublimation pressure ([2]; 440 K): 58.84 ± 0.51 kPa; vapor or sublimation pressure ([2]; 445 K): 67.65 ± 0.54 kPa; vapor or sublimation pressure ([2]; 450 K): 77.41 ± 0.57 kPa; vapor or sublimation pressure ([2]; 455 K): 88.19 ± 0.6 kPa; vapor or sublimation pressure ([2]; 460 K): 100.05 ± 0.64 kPa; vapor or sublimation pressure ([2]; 460.75 K): 101.33 ± 0.65 kPa

**Q.** With `CCCCOC(=O)[C@H](C)O` [butyl L-lactate] + CCCCO as the molecule, how does the mass density ([3]; x2 = 0) read?
**A.** 982.178 ± 0.21 kg/m3

**Q.** What about the mass density ([3]; x2 = 0.0989) of the same molecule?
**A.** 971.809 ± 0.23 kg/m3

**Q.** What about the mass density ([3]; x2 = 0.1806) of the same molecule?
**A.** 962.459 ± 0.25 kg/m3

**Q.** And the mass density ([3]; x2 = 0.2599)?
**A.** 952.704 ± 0.27 kg/m3

**Q.** And the mass density ([3]; x2 = 0.3973)?
**A.** 933.863 ± 0.31 kg/m3

**Q.** And the mass density ([3]; x2 = 0.5154)?
**A.** 915.521 ± 0.35 kg/m3

**Q.** What about the mass density ([3]; x2 = 0.5669) of the same molecule?
**A.** 906.818 ± 0.36 kg/m3

**Q.** And the mass density ([3]; x2 = 0.6645)?
**A.** 888.883 ± 0.4 kg/m3

**Q.** What about the mass density ([3]; x2 = 0.7069) of the same molecule?
**A.** 880.503 ± 0.41 kg/m3

**Q.** What about the mass density ([3]; x2 = 0.7854) of the same molecule?
**A.** 863.836 ± 0.44 kg/m3

**Q.** What about the mass density ([3]; x2 = 0.8546) of the same molecule?
**A.** 847.901 ± 0.47 kg/m3

**Q.** What about the mass density ([3]; x2 = 0.9174) of the same molecule?
**A.** 832.199 ± 0.5 kg/m3

**Q.** And the mass density ([3]; x2 = 0.9728)?
**A.** 817.297 ± 0.53 kg/m3

**Q.** Which refractive index [1] does the source give for `CCO` [ethanol] here?
**A.** 1.3614 ± 0.0007

**Q.** And the mass density [2]?
**A.** 789.261 ± 0.59 kg/m3

**Q.** What about the “vapor or sublimation pressure” value ([2]; 351.44 K) of the same molecule?
**A.** 101.33 ± 0.34 kPa

**Q.** For `CCO` [ethanol] + CCOC(=O)[C@H](C)O, which mass density ([3]; x1 = 1) is on record?
**A.** 789.261 ± 0.59 kg/m3

**Q.** Which results are given for `CC(C)OC(=O)[C@H](C)O` [isopropyl (S)-2-hydroxypropionate]?
**A.** refractive index [1]: 1.4105 ± 0.0007; mass density [2]: 986.942 ± 0.2 kg/m3; vapor or sublimation pressure ([2]; 355 K): 7.424 ± 0.34 kPa; vapor or sublimation pressure ([2]; 360 K): 9.156 ± 0.35 kPa; vapor or sublimation pressure ([2]; 365 K): 11.22 ± 0.36 kPa; vapor or sublimation pressure ([2]; 370 K): 13.68 ± 0.36 kPa; vapor or sublimation pressure ([2]; 375 K): 16.58 ± 0.37 kPa; vapor or sublimation pressure ([2]; 380 K): 20 ± 0.38 kPa; vapor or sublimation pressure ([2]; 385 K): 23.99 ± 0.4 kPa; vapor or sublimation pressure ([2]; 390 K): 28.63 ± 0.41 kPa; vapor or sublimation pressure ([2]; 395 K): 34.02 ± 0.43 kPa; vapor or sublimation pressure ([2]; 400 K): 40.24 ± 0.45 kPa; vapor or sublimation pressure ([2]; 405 K): 47.39 ± 0.47 kPa; vapor or sublimation pressure ([2]; 410 K): 55.59 ± 0.5 kPa; vapor or sublimation pressure ([2]; 415 K): 64.93 ± 0.53 kPa; vapor or sublimation pressure ([2]; 420 K): 75.56 ± 0.56 kPa; vapor or sublimation pressure ([2]; 425 K): 87.6 ± 0.6 kPa; vapor or sublimation pressure ([2]; 430 K): 101.19 ± 0.64 kPa; vapor or sublimation pressure ([2]; 430.21 K): 101.33 ± 0.64 kPa

**Q.** Which mass density ([3]; x2 = 0) does the source give for `CC(C)OC(=O)[C@H](C)O` [isopropyl (S)-2-hydroxypropionate] + CC(C)O here?
**A.** 986.942 ± 0.2 kg/m3

**Q.** What about the mass density ([3]; x2 = 0.087) of the same molecule?
**A.** 976.815 ± 0.22 kg/m3

**Q.** What about the mass density ([3]; x2 = 0.197) of the same molecule?
**A.** 962.69 ± 0.25 kg/m3

**Q.** And the mass density ([3]; x2 = 0.281)?
**A.** 950.807 ± 0.27 kg/m3

**Q.** And the mass density ([3]; x2 = 0.3554)?
**A.** 939.404 ± 0.3 kg/m3

**Q.** And the mass density ([3]; x2 = 0.542)?
**A.** 906.498 ± 0.37 kg/m3

**Q.** What about the mass density ([3]; x2 = 0.5652) of the same molecule?
**A.** 901.903 ± 0.37 kg/m3

**Q.** What about the mass density ([3]; x2 = 0.6921) of the same molecule?
**A.** 874.425 ± 0.42 kg/m3

**Q.** And the mass density ([3]; x2 = 0.7733)?
**A.** 854.447 ± 0.46 kg/m3

**Q.** What about the mass density ([3]; x2 = 0.8365) of the same molecule?
**A.** 837.361 ± 0.49 kg/m3

**Q.** What about the mass density ([3]; x2 = 0.8675) of the same molecule?
**A.** 828.428 ± 0.51 kg/m3

**Q.** What about the mass density ([3]; x2 = 0.9249) of the same molecule?
**A.** 810.801 ± 0.55 kg/m3

**Q.** What about the mass density ([3]; x2 = 0.9516) of the same molecule?
**A.** 802.104 ± 0.56 kg/m3

**Q.** Which results are given for `CC(C)O` [propan-2-ol]?
**A.** refractive index [1]: 1.3774 ± 0.0007; mass density [2]: 785.428 ± 0.6 kg/m3; vapor or sublimation pressure ([2]; 355.36 K): 101.33 ± 0.34 kPa

**Q.** Which mass density ([3]; x1 = 1) does the source give for `CC(C)O` [propan-2-ol] + CC(C)OC(=O)[C@H](C)O here?
**A.** 785.428 ± 0.6 kg/m3
